Test results as given in US10925890B2, “Use of dextran sulfate” (TX MEDIC AB, priority 2014, dated 2021).

Legend:
tMCAO rat-stroke model = assay: Forelimb placing test, tMCAO rat; format: in vivo
Description: Transient middle cerebral artery occlusion was performed according to the method previously described in Stroke 29, 2162-2170 (1998). The right common carotid artery (CCA) was exposed through a midline neck incision and carefully dissected free from surrounding nerves and fascia—from its bifurcation to the base of the skull. The occipital artery branches of the external carotid artery (ECA) were then isolated, and these branches were dissected and coagulated. The ECA was dissected further distally and coagulated along with the terminal lingual and maxillary artery branches, which was then divided. The internal carotid artery (ICA) was isolated and carefully separated from the adjacent vagus nerve, and the pterygopalatine artery was ligated close to its origin with a 5-0 nylon suture (SMI, Belgium). Next a 4-0 silk suture was tied loosely around the mobilized ECA stump, and a 4 cm length of 4-0 monofilament nylon suture (the tip of the suture was blunted by using a flame, and the suture was coated with polylysine, prior to insertion) was inserted through the proximal ECA into the ICA and thence into the circle of Willis, effectively occluding the MCA. […]
For each subtest, animals were scored as followed: • 0.0=immediate response • 0.5=response within 2 seconds • 1.0=response of 2-3 seconds • 1.5=response of >3 seconds • 2.0=no response

[1] = Adverse effects, rat hind-limb ischemia study; format: in vivo; conditions: 30 and 3 mg/kg s.c., 3 times a week or single dose
Description: Animals in group 4M and 5M were injected s.c. once on Day 8, see Table 12.
In the present study blood flow improvement in the rat hind-limb ischemia model was examined in order to evaluate the efficacy of dextran sulfate in two different doses and treatment regimes. […] Both doses and administration regimens were efficacious. No spontaneous amputations or toe necrosis occurred in any of the treated or control animal groups. […] Collectively the data of this study confirmed the therapeutic efficacy of dextran sulfate for the treatment of occlusive peripheral arterial disease in the rat hind-limb ischemia model.

Dextran sulfate
Forelimb placement test compared to vehicle control (tMCAO rat-stroke model; all treated rats, starting on day 14 up to day 28): statistically significant improvement | Forelimb placement test, improvement in sensory motor deficits (tMCAO rat-stroke model; group 3M (15 mg/kg daily), first testing on day 7): reached statistical significance | Adverse effects in the treated animals [1]: did not cause any adverse effects
